Several values for one entry are separate records, joined by “and”; a condition that tells them apart may be missing. Equal values may be shown once. Toxic doses and inconclusive results are not listed. The calls were made as follows: active = survival T/C of 150% or more; inactive = T/C below 125% in these data.
Tested on: P388 leukemia ip, CD2F1 mice, survival T/C
Experiment: NCI In Vivo Anticancer Drug Screen. Data for tumor model P388 Leukemia (intraperitoneal) in CD2F1 (CDF1) mice
Details: endpoint: median survival time, higher = longer survival
Summary of the method: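 Mice carrying the transplanted tumor received test compound or vehicle. Survival was recorded in each group, and the value is the treated-group measurement divided by that of the vehicle-treated control group.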

[1] = dose: 100.0 mg/kg/injection, schedule: Q04DX003 (ip), vehicle: saline
[2] = dose: 200.0 mg/kg/injection, schedule: Q04DX003 (ip), vehicle: saline
[3] = dose: 50.0 mg/kg/injection, schedule: Q01DX009 (ip), vehicle: saline
[4] = dose: 100.0 mg/kg/injection, schedule: Q01DX009 (ip), vehicle: saline
[5] = dose: 200.0 mg/kg/injection, schedule: Q01DX009 (ip), vehicle: saline
[6] = dose: 6.25 mg/kg/injection, schedule: Q01DX005 (ip), vehicle: Klucel (hydroxypropylcellulose) (HPC)
[7] = dose: 12.5 mg/kg/injection, schedule: Q01DX005 (ip), vehicle: Klucel (hydroxypropylcellulose) (HPC)
[8] = dose: 25.0 mg/kg/injection, schedule: Q01DX005 (ip), vehicle: Klucel (hydroxypropylcellulose) (HPC)
[9] = dose: 50.0 mg/kg/injection, schedule: Q01DX005 (ip), vehicle: Klucel (hydroxypropylcellulose) (HPC)
[10] = dose: 100.0 mg/kg/injection, schedule: Q01DX005 (ip), vehicle: Klucel (hydroxypropylcellulose) (HPC)
[11] = dose: 60.0 mg/kg/injection, schedule: Q01DX005 (ip), vehicle: saline with Tween-80
[12] = dose: 120.0 mg/kg/injection, schedule: Q01DX005 (ip), vehicle: saline with Tween-80
[13] = dose: 240.0 mg/kg/injection, schedule: Q01DX005 (ip), vehicle: saline with Tween-80
[14] = dose: 200.0 mg/kg/injection, schedule: Q01DX005 (ip), vehicle: Klucel (hydroxypropylcellulose) (HPC)
[15] = dose: 12.5 mg/kg/injection, schedule: Q01DX009 (ip), vehicle: saline
[16] = dose: 25.0 mg/kg/injection, schedule: Q01DX009 (ip), vehicle: saline

Measured: T/C

COC(/C=N/O)c1ccccc1 (stereo unspecified)
inactive: dose: 25.0 mg/kg/injection, schedule: Q04DX003 (ip), vehicle: saline with Tween-80 100 % of control | dose: 25.0 mg/kg/injection, schedule: Q04DX003 (ip), vehicle: saline 109 % of control | dose: 50.0 mg/kg/injection, schedule: Q04DX003 (ip), vehicle: saline with Tween-80 100 % of control and 94 % of control | dose: 50.0 mg/kg/injection, schedule: Q04DX003 (ip), vehicle: saline 101 % of control | dose: 100.0 mg/kg/injection, schedule: Q04DX003 (ip), vehicle: saline with Tween-80 106 % of control and 87 % of control | [1] 101 % of control | [2] 105 % of control

CSC(=S)N/N=C(\C)c1cccs1
inactive: dose: 50.0 mg/kg/injection, schedule: Q01DX009 (ip), vehicle: saline with Tween-80 91 % of control | dose: 100.0 mg/kg/injection, schedule: Q01DX009 (ip), vehicle: saline with Tween-80 111 % of control | dose: 200.0 mg/kg/injection, schedule: Q01DX009 (ip), vehicle: saline with Tween-80 110 % of control

C=C(C(=O)OC1C/C(C)=C/C(O)C/C(C)=C/C2OC(=O)C(=C)C21)C(C)O (stereo unspecified)
inactive: dose: 25.0 mg/kg/injection, schedule: Q04DX002 (ip), vehicle: Klucel (hydroxypropylcellulose) (HPC) 109 % of control | dose: 25.0 mg/kg/injection, schedule: Q04DX002 (ip), vehicle: saline with Tween-80 110 % of control | dose: 50.0 mg/kg/injection, schedule: Q04DX002 (ip), vehicle: Klucel (hydroxypropylcellulose) (HPC) 117 % of control | dose: 50.0 mg/kg/injection, schedule: Q04DX002 (ip), vehicle: saline with Tween-80 102 % of control | dose: 100.0 mg/kg/injection, schedule: Q04DX002 (ip), vehicle: Klucel (hydroxypropylcellulose) (HPC) 117 % of control | dose: 200.0 mg/kg/injection, schedule: Q04DX002 (ip), vehicle: saline with Tween-80 124 % of control

O=C(NC1COB(c2cccc([N+](=O)[O-])c2)OC1c1ccc([N+](=O)[O-])cc1)C(Cl)Cl (stereo unspecified)
inactive: dose: 60.0 mg/kg/injection, schedule: Q01DX005 (ip), vehicle: Klucel (hydroxypropylcellulose) (HPC) 98 % of control | dose: 120.0 mg/kg/injection, schedule: Q01DX005 (ip), vehicle: Klucel (hydroxypropylcellulose) (HPC) 98 % of control | dose: 240.0 mg/kg/injection, schedule: Q01DX005 (ip), vehicle: Klucel (hydroxypropylcellulose) (HPC) 93 % of control

CC(=O)Nc1ccc2c(c1)Cc1cccc(NC(C)=O)c1-2
inactive: [3] 105 % of control | [4] 110 % of control | [5] 115 % of control

COc1ccc2nc3cc(Cl)ccc3c(SCC(=O)OCC(=O)[C@@]3(O)CC[C@H]4[C@@H]5CCC6=CC(=O)C=C[C@]6(C)[C@H]5C(=O)C[C@@]43C)c2c1
inactive: [3] 118 % of control | [4] 108 % of control | [5] 110 % of control

Cc1cc(C)nc(Nc2nnc(Nc3cc(C)cc(C)n3)c3ccccc23)c1
inactive: dose: 50.0 mg/kg/injection, schedule: Q01DX005 (ip), vehicle: saline with Tween-80 96 % of control | dose: 100.0 mg/kg/injection, schedule: Q01DX005 (ip), vehicle: saline with Tween-80 93 % of control | dose: 200.0 mg/kg/injection, schedule: Q01DX005 (ip), vehicle: saline with Tween-80 87 % of control

CC1(C)CCC2(C(=O)OC3OC(CO)C(O)C(O)C3O)CCC3(C)C(=CCC4C5(C)CCC(OC6OC(CO)C(O)C(O)C6O)C(C)(C)C5CCC43C)C2C1 (stereo unspecified)
inactive: dose: 3.12 mg/kg/injection, schedule: Q01DX005 (ip), vehicle: Klucel (hydroxypropylcellulose) (HPC) 98 % of control | [6] 104 % of control | [7] 104 % of control | [8] 95 % of control | [9] 102 % of control

COc1cc(C(N)CCc2ccc3c(c2)OCO3)cc(OC)c1OC (stereo unspecified)
inactive: [9] 110 % of control | [10] 98 % of control

CSc1nc(NC2OC(COC(C)=O)C(OC(C)=O)C(OC(C)=O)C2OC(C)=O)c(N=CC=Nc2c(NC3OC(COC(C)=O)C(OC(C)=O)C(OC(C)=O)C3OC(C)=O)nc(SC)n(C)c2=O)c(=O)n1C (stereo unspecified)
inactive: [11] 89 % of control | [12] 91 % of control

O=Cc1ccc(COCCO)o1
inactive: [11] 105 % of control | [12] 102 % of control | [13] 102 % of control

O=C(N=C1C(=O)C2(CCCCC2)C2(N=C(c3ccccc3)OC2=O)C12CCCCC2)c1ccccc1 (stereo unspecified)
inactive: [11] 107 % of control | [12] 100 % of control | [13] 100 % of control

CN(C)C1CCC(NC2=CC(=O)C(NC3CCC(N(C)C)CC3)=CC2=O)CC1 (stereo unspecified)
inactive: dose: 1.56 mg/kg/injection, schedule: Q01DX005 (ip), vehicle: distilled water + alcohol 95 % of control | dose: 3.12 mg/kg/injection, schedule: Q01DX005 (ip), vehicle: distilled water + alcohol 99 % of control | dose: 6.25 mg/kg/injection, schedule: Q01DX005 (ip), vehicle: distilled water + alcohol 100 % of control and 96 % of control

C=CC(C)C(O)C(=O)OC (stereo unspecified)
inactive: dose: 100.0 mg/kg/injection, schedule: Q01DX001 (ip), vehicle: saline with Tween-80 98 % of control | dose: 200.0 mg/kg/injection, schedule: Q01DX001 (ip), vehicle: saline with Tween-80 110 % of control | dose: 400.0 mg/kg/injection, schedule: Q01DX001 (ip), vehicle: saline with Tween-80 103 % of control

O=C(NP1(=O)NCc2ccccc2CN1)OC1CCCCC1
inactive: [6] 94 % of control | [7] 99 % of control | [8] 97 % of control

Cc1ccc(C(=O)/C([S-])=C(\Nc2cccc(Cl)c2)[n+]2ccccc2)cc1
inactive: [9] 100 % of control | [10] 98 % of control | [14] 93 % of control

CC(=O)C/C(=N\NS(=O)(=O)c1cc(Cl)c(Cl)cc1Cl)c1ccc([N+](=O)[O-])cc1
inactive: [1] 99 % of control | [2] 100 % of control | dose: 400.0 mg/kg/injection, schedule: Q04DX003 (ip), vehicle: saline 97 % of control

FC(F)(F)c1ccc2nc3c(nc2c1)-c1ccc(Br)c2cccc-3c12
inactive: [3] 115 % of control | [4] 101 % of control | [5] 99 % of control

C=C(C)CCC(N)C(=O)O (stereo unspecified)
inactive: [15] 107 % of control | [16] 104 % of control | [3] 100 % of control

NNc1ncnc2nc[nH]c12
inactive: dose: 6.25 mg/kg/injection, schedule: Q01DX009 (ip), vehicle: saline sonified 95 % of control | dose: 6.25 mg/kg/injection, schedule: Q01DX009 (ip), vehicle: saline 100 % of control | dose: 6.25 mg/kg/injection, schedule: Q01DX009 (ip), vehicle: suspension in saline 111 % of control | dose: 12.5 mg/kg/injection, schedule: Q01DX009 (ip), vehicle: saline sonified 100 % of control | [15] 100 % of control | dose: 12.5 mg/kg/injection, schedule: Q01DX009 (ip), vehicle: suspension in saline 100 % of control | dose: 25.0 mg/kg/injection, schedule: Q01DX009 (ip), vehicle: saline sonified 120 % of control | [16] 106 % of control | dose: 25.0 mg/kg/injection, schedule: Q01DX009 (ip), vehicle: suspension in saline 103 % of control | dose: 50.0 mg/kg/injection, schedule: Q01DX009 (ip), vehicle: suspension in saline 119 % of control | dose: 100.0 mg/kg/injection, schedule: Q04DX003 (ip), vehicle: saline sonified 109 % of control | dose: 200.0 mg/kg/injection, schedule: Q04DX003 (ip), vehicle: saline sonified 90 % of control

O=C1OC(=O)C2CC3C(CC12)C1(Cl)C(Cl)=C(Cl)C3(Cl)C1(Cl)Cl (stereo unspecified)
inactive: [9] 104 % of control | [10] 100 % of control | [14] 107 % of control

CCC1=C[C@H]2CN(CCc3c([nH]c4ccccc34)[C@@](C(=O)OC)(c3cc4c(cc3OC)N(C)[C@H]3C(C(=O)NC)=C[C@]5(CC)C=CCN6CC[C@]43[C@@H]65)C2)C1
inactive: dose: 1.0 mg/kg/injection, schedule: Q01DX001 (ip), vehicle: other 101 % of control | dose: 2.0 mg/kg/injection, schedule: Q01DX001 (ip), vehicle: other 101 % of control | dose: 4.0 mg/kg/injection, schedule: Q01DX001 (ip), vehicle: other 107 % of control | dose: 8.0 mg/kg/injection, schedule: Q01DX001 (ip), vehicle: other 108 % of control | dose: 16.0 mg/kg/injection, schedule: Q01DX001 (ip), vehicle: other 114 % of control | dose: 32.0 mg/kg/injection, schedule: Q01DX001 (ip), vehicle: other 112 % of control and 123 % of control | dose: 64.0 mg/kg/injection, schedule: Q01DX001 (ip), vehicle: other 119 % of control

— PubChem BioAssay AID330 (DTP/NCI, 2004)
